How the values were obtained:
[1] = ASSAY (III) ThT fibrillation assay for physical stability; format: physicochemical
Summary of the method: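 Physical stability scored by ThT fluorescence (444 nm excitation, 485 nm emission) tracked every 20 min during 37 °C incubation with 960 rpm shaking, ThT at 1 μM final. Values are replicate means with SD at chosen times; HPLC against pramlintide standard gives initial and post-assay soluble concentrations.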

[2] = tested on: Sprague Dawley (SD) rats; assay: ASSAY (I) efficacy testing on appetite (food intake) using an ad libitum fed rat model; format: in vivo; settings: rat, 30 nmol/kg
Summary of the method: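 Individual food consumption was logged each hour up to 7 h and again at 24 h, occasionally 48 h, with Grubbs-test outliers removed. Each 200–250 g Sprague Dawley rat, free-feeding in its home cage under reversed lighting, received a single ip, po or sc dose of 0.01–3 mg/kg at lights-off, alongside a vehicle group.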

ThT pH 4.0 lag time (h) [1] [h]	Structure (SMILES)	Food intake reduction 0-24 h 30 nmol/kg (%) [2] [%]	Food intake reduction 24-48 h 30 nmol/kg (%) [2] [%]
34	CC[C@H](C)[C@H](NC(=O)[C@H](C)NC(=O)CNC(=O)[C@H](Cc1ccccc1)NC(=O)[C@H](CC(N)=O)NC(=O)[C@@H]1CCCN1C(=O)[C@H](CO)NC(=O)[C@H](CO)NC(=O)[C@H](Cc1c[nH]cn1)NC(=O)[C@H](CCCNC(=N)N)NC(=O)[C@H](CC(C)C)NC(=O)[C@H](Cc1ccccc1)NC(=O)[C@H](CC(N)=O)NC(=O)[C@H](C)NC(=O)[C@H](CC(C)C)NC(=O)[C@H](CCCNC(=N)N)NC(=O)[C@H](CCC(N)=O)NC(=O)[C@@H](NC(=O)[C@H](C)NC(=O)[C@@H]1CSSC[C@H](NC(=O)[C@H](CCCCN)NC(=O)COCCOCCNC(=O)COCCOCCNC(=O)CC[C@H](NC(=O)CCCCCCCCCCCCCCCCCCC(=O)O)C(=O)O)C(=O)N[C@@H](CC(N)=O)C(=O)N[C@@H]([C@@H](C)O)C(=O)N[C@@H](C)C(=O)N[C@@H]([C@@H](C)O)C(=O)N1)[C@@H](C)O)C(=O)N1CCC[C@H]1C(=O)N[C@@H](CO)C(=O)N[C@@H](CO)C(=O)N[C@H](C(=O)N[C@@H](CC(N)=O)C(=O)N[C@H](C(=O)NCC(=O)N[C@@H](CO)C(=O)N[C@@H](CC(N)=O)C(=O)N[C@H](C(=O)N[C@@H](Cc1ccc(O)cc1)C(N)=O)[C@@H](C)O)C(C)C)[C@@H](C)O [Example 24]	22	1
45	CC[C@H](C)[C@H](NC(=O)[C@H](C)NC(=O)CNC(=O)[C@H](Cc1ccccc1)NC(=O)[C@H](CC(N)=O)NC(=O)[C@@H]1CCCN1C(=O)[C@H](CO)NC(=O)[C@H](CO)NC(=O)[C@H](Cc1c[nH]cn1)NC(=O)[C@H](CCCNC(=N)N)NC(=O)[C@H](CC(C)C)NC(=O)[C@H](Cc1ccccc1)NC(=O)[C@H](CC(N)=O)NC(=O)[C@H](C)NC(=O)[C@H](CC(C)C)NC(=O)[C@H](CCCNC(=N)N)NC(=O)[C@H](CCC(N)=O)NC(=O)[C@@H](NC(=O)[C@H](C)NC(=O)[C@@H]1CSSC[C@H](NC(=O)[C@@H](N)CCCCNC(=O)CC[C@H](NC(=O)CCCCCCCCCCCCCCCCCCC(=O)O)C(=O)O)C(=O)N[C@@H](CC(N)=O)C(=O)N[C@@H]([C@@H](C)O)C(=O)N[C@@H](C)C(=O)N[C@@H]([C@@H](C)O)C(=O)N1)[C@@H](C)O)C(=O)N1CCC[C@H]1C(=O)N[C@@H](CO)C(=O)N[C@@H](CO)C(=O)N[C@H](C(=O)N[C@@H](CC(N)=O)C(=O)N[C@H](C(=O)NCC(=O)N[C@@H](CO)C(=O)N[C@@H](Cc1c[nH]cn1)C(=O)N[C@H](C(=O)N[C@@H](Cc1ccc(O)cc1)C(N)=O)[C@@H](C)O)C(C)C)[C@@H](C)O [Example 60]	69	21

— patent US9023789B2, “Amylin analogs and pharmaceutical compositions thereof” (Novo Nordisk A/S, priority 2012, dated 2015)
